Read-outs that look alike come from different tables or passages of the source.
Legend:
protease = assay: Protease inhibition activity of inhibitor solutions and lotions, fresh and after storage; format: biochemical; details: for initial protease inhibition activity: freshly prepared preparation; for decrease of inhibitory activity after storage of solution: one month at room temperature, vs fresh solution
Description: (§1) The inventor selected glycine soja and DPHP by testing numerous potential inhibitors in vitro to assess their activity against protease enzymes. A protease enzyme present in feces or urine, such as trypsin, chymotrypsin, or elastase, was placed in contact with a substrate (crosslinked albumin, sulfaniloazo-albumin and gelatin). Separately, the protease (trypsin, chymotrypsin or elastase) was incubated with a protease inhibitor and then this combination was placed in contact with the substrate. The substrate-protease or substrate-protease-protease inhibitor combination was then left to incubate.
(§2) At a defined time, the incubation was stopped by the addition of NaOH. Color was developed and read at OD 450. The intensity of the color developed was directly proportional to the amount of substrate digested by the protease.
Using the above methods, two protease inhibitors mentioned by the prior art were tested. […] However, they were left for one month and then tested for activity. After one month at room temperature, the activity of the stabilized AEBSF solution was decreased by 42%.

trypsin = target: T1, trypsin (Bos taurus, UniProt P00760); assay: Back digest of albumin/gelatin dye substrate by trypsin (FIGS. 2 and 4); format: biochemical
T1 construct: gene PRSS1
T1 sequence (P00760 24-246): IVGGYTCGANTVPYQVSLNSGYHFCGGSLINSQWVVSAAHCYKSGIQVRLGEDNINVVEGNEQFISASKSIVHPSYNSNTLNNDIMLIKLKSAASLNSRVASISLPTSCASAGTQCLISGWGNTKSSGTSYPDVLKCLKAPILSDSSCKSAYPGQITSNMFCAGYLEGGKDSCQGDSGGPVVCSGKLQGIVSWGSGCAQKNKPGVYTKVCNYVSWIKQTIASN
Description: as §1, §2
A back digest was performed with a spectrally active protease substrate, trypsin, and either DPHP or glycine soja. Trypsin was incubated with either DPHP or glycine soja, and for the control, neither DPHP nor glycine soja was used. The trypsin or trypsin+either DPHP or glycine soja was then placed in contact with a substrate, the results of which are shown in FIGS. 3 and 4.
(§3) The substrate used was a crosslinked albumin, sulfaniloazo-albumin and gelatin at a slightly acidic pH. […] This color development can be measured spectrophotometrically at OD 450 and the OD value is proportional to enzymatic activity. […] The OD 450 reading is directly proportional to the enzyme activity (i.e. the higher the value, the higher the enzyme activity).
(§4) A back digest was conducted when particulate suspensions were used as either enzyme or enzyme inhibitor or when lotions were being tested, because the particulate interferes with the OD readings. […] Color development was read at OD 450. […]
After an initial digest, the supernatant was decanted, and an excess of trypsin was added for further digestion of the substrate. After this final digest, supernatant optical density (OD) was read at 450 nm. […]

elastase [1] = assay: Back digest of albumin/gelatin dye substrate by elastase (FIG. 4); format: biochemical
Description: as §1
At a defined time, the incubation was stopped by the addition of NaOH. Color was developed and read at OD 450. […]
as §3, §4

chymotrypsin = chymotrypsin (Bos taurus, UniProt P00766); assay: In vitro protease substrate digest with chymotrypsin; format: biochemical
Description: as §1, §2

elastase [2] = details: studies by the manufacturer (Seppic); cited from earlier work
[3] = shown by the manufacturer; cited from earlier work
[4] = DPHP material itself, back digest, FIG. 4
[5] = listed as dipalmitoyl hydroxyproline

SMILES | initial protease inhibition activity (protease) | decrease of inhibitory activity after storage of solution (protease) | inhibition of trypsin (in words) (trypsin) | change in trypsin activity (trypsin; [4]) [%] | inhibition of trypsin (in words) (trypsin; [5]) | inhibition of elastase (in words) (elastase [1]) | change in elastase activity (elastase [1]; [4]) [%] | inhibition of chymotrypsin (in words) (chymotrypsin) | inhibition of chymotrypsin (in words) (chymotrypsin; [5]) | inhibition of elastase (manufacturer) (elastase [2]) | inhibition of free radicals (manufacturer) [3]
N=C(N)c1ccc(OCCCCCCOc2ccc(C(=N)N)cc2)cc1.O=S(=O)(O)CCO.O=S(=O)(O)CCO [Elestab, hexamidine diisethionate] | very high protease inhibition activity | about 37% | – | – | – | – | – | – | – | – | –
Cl.NCCc1ccc(S(=O)(=O)F)cc1 [AEBSF, 4-(2-aminoethyl)-benzenesulfonylfluoride hydrochloride] | very high protease inhibition activity | 42% | – | – | – | – | – | – | – | – | –
CCCCCCCCCCCCCCCC(=O)O[C@@H]1C[C@@H](C(=O)O)N(C(=O)CCCCCCCCCCCCCCC)C1 [DPHP, dipalmitoyl hydroxyproline] | – | – | does inhibit | −33 | potent inhibitors | does inhibit | −22 | does inhibit | potent inhibitors | potent inhibitor of elastase | potent inhibitor of free radicals

Reference: US20050048105A1, “Protease inhibitor compositions for prevention and treatment of skin conditions” (priority 2003, published 2005)
